Consider seven molecules from ChEMBL document CHEMBL5465560, “Selectivity Literature for EUbOPEN Chemogenomic Library” (2024).

In assay [1] the target is T1, Serine/threonine-protein kinase RIO1 (Homo sapiens) (UniProt Q9BRS2).
T1 sequence (whole entry): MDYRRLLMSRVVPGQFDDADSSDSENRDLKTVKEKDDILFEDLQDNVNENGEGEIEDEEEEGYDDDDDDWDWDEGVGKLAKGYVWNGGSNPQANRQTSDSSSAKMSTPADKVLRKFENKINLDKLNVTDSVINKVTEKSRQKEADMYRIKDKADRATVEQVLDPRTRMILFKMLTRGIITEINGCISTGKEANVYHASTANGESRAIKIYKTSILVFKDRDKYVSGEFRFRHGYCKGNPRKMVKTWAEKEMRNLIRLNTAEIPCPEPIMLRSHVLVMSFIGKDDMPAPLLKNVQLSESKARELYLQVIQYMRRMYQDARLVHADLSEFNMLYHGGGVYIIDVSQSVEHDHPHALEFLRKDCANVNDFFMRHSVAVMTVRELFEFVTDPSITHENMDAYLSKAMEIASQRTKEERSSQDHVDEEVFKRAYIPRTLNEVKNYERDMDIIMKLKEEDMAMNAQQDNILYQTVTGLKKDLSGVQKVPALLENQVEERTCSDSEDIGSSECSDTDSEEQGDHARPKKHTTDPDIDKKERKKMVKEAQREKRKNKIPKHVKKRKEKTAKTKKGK
Nature of the assay: Selectivity interaction (Ambit KINOMEscan and KiNATiv profiling in Jurkat cells) EUB0000090b RIOK1. It counts as cell-based. Conditions: at 1 µM.

The target in assay [2] is AMP-activated protein kinase (AMPK) alpha-1/beta-1/gamma-1 (Homo sapiens) (UniProt P54619+Q9Y478+Q13131). Put plainly: (§1) Selectivity interaction (SelectScreen profiling (Invitrogen)) EUB0000607a PRKAA1. It counts as protein-complex assay. Conditions: at 2 µM.
Sequence of AMP-activated protein kinase (AMPK) alpha-1/beta-1/gamma-1 (Homo sapiens) (P54619 whole entry): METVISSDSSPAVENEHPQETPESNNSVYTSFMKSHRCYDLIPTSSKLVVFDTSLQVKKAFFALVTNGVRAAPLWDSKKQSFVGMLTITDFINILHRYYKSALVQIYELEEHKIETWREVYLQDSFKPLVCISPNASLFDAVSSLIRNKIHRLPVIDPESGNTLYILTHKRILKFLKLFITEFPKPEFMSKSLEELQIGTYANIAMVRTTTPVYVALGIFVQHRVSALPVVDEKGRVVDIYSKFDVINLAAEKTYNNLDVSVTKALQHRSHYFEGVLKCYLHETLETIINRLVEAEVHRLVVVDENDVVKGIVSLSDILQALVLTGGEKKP
Sequence of AMP-activated protein kinase (AMPK) alpha-1/beta-1/gamma-1 (Homo sapiens) (Q13131 whole entry partner): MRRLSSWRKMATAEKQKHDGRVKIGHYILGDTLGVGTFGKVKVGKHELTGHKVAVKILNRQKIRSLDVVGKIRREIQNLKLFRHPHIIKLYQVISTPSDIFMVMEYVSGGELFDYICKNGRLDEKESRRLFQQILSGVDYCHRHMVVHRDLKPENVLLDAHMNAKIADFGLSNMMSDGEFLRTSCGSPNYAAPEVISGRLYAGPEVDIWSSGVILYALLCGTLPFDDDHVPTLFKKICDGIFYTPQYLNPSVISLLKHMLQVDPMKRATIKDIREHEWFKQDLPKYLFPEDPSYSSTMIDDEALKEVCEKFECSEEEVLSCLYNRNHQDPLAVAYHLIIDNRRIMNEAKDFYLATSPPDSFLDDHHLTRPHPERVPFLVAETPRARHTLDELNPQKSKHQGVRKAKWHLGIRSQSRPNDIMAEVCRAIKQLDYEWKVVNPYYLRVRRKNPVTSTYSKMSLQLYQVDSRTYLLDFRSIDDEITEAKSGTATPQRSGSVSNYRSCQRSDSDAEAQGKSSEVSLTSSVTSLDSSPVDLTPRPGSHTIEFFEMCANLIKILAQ
Sequence of AMP-activated protein kinase (AMPK) alpha-1/beta-1/gamma-1 (Homo sapiens) (Q9Y478 2-270 partner limits assumed): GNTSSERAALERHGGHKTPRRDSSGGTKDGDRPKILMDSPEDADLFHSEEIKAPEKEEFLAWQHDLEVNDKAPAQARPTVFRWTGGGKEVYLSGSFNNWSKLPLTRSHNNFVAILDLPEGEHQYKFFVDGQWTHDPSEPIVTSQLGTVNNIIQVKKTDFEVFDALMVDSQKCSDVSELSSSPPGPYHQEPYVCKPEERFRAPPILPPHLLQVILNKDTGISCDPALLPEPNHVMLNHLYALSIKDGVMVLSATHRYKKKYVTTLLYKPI
Assay [3] deals with AMPK alpha2/beta1/gamma1 (Homo sapiens) (UniProt P54646+P54619+Q9Y478). The assay is described as §1. Type of assay: protein-complex assay. Conditions: at 2 µM.
Sequence of AMPK alpha2/beta1/gamma1 (Homo sapiens) (P54619 whole entry partner): as the sequence (P54619 whole entry) above
Sequence of AMPK alpha2/beta1/gamma1 (Homo sapiens) (P54646 whole entry): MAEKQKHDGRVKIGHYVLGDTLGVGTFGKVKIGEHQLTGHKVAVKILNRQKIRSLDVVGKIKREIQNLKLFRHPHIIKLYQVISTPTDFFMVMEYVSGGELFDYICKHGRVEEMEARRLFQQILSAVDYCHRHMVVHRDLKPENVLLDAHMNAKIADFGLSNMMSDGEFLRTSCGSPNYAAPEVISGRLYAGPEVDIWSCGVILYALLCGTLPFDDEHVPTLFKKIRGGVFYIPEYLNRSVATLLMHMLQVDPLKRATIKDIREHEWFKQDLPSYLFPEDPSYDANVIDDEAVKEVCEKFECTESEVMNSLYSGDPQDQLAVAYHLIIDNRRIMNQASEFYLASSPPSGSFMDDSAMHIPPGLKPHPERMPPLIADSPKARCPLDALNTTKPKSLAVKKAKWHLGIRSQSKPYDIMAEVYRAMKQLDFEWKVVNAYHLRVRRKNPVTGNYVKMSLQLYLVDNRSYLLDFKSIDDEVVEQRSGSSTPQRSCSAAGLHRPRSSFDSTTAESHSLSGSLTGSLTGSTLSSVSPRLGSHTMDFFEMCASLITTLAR
Sequence of AMPK alpha2/beta1/gamma1 (Homo sapiens) (Q9Y478 2-270 partner limits assumed): as the sequence (Q9Y478 2-270 partner limits assumed) above
Assay [4] concerns the target Tyrosine-protein kinase Yes (Homo sapiens) (UniProt P07947). Put plainly: Selectivity interaction (KinomeScan (DiscoverX)) EUB0001079a YES1. Conditions: at 1 µM.
In assay [5] the target is Tyrosine-protein kinase Lck (Homo sapiens, UniProt P06239). Put plainly: Selectivity interaction (Kinase screening (Upstate/Millipore)) EUB0000604a LCK.
Sequence of Tyrosine-protein kinase Lck (P06239 2-509 limits assumed): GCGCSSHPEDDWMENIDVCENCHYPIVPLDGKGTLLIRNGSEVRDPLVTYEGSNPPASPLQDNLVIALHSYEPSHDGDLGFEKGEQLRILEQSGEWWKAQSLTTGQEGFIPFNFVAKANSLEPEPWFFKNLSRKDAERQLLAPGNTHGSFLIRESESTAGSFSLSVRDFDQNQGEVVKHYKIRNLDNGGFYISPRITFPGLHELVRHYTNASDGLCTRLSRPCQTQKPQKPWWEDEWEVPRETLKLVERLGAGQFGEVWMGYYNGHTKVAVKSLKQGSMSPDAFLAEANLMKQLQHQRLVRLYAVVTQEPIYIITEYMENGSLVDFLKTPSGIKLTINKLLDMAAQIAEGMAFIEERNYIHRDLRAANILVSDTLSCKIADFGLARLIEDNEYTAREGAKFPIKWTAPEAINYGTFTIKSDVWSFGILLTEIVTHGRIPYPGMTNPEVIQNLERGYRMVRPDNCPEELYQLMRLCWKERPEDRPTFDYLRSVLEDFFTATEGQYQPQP
In assay [6] the target is Protein kinase C eta type (Homo sapiens) (UniProt P24723). Put plainly: Selectivity interaction (ProQinase) EUB0000171b PRKCH.
Sequence of Protein kinase C eta type (Homo sapiens) (P24723 whole entry): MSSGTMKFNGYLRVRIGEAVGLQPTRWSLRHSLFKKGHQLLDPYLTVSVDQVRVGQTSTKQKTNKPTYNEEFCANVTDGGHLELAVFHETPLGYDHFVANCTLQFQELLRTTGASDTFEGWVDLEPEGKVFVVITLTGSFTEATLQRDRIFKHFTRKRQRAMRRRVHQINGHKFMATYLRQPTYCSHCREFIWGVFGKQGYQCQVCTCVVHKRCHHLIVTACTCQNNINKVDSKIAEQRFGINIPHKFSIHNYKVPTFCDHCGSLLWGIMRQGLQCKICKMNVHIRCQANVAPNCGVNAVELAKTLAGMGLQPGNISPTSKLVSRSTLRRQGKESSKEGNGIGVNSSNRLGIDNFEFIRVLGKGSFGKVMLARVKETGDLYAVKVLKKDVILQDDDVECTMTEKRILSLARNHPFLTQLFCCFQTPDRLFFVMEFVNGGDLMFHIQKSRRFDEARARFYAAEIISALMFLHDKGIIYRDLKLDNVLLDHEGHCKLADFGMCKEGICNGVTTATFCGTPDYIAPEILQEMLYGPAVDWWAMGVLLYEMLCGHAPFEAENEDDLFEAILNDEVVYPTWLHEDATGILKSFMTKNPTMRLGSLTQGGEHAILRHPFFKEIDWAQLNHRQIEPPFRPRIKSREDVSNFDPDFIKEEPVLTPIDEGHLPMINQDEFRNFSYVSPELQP
Assay [7] concerns the target T2, Histone-lysine N-methyltransferase NSD3 (Homo sapiens) (UniProt Q9BZ95).
T2 sequence (whole entry): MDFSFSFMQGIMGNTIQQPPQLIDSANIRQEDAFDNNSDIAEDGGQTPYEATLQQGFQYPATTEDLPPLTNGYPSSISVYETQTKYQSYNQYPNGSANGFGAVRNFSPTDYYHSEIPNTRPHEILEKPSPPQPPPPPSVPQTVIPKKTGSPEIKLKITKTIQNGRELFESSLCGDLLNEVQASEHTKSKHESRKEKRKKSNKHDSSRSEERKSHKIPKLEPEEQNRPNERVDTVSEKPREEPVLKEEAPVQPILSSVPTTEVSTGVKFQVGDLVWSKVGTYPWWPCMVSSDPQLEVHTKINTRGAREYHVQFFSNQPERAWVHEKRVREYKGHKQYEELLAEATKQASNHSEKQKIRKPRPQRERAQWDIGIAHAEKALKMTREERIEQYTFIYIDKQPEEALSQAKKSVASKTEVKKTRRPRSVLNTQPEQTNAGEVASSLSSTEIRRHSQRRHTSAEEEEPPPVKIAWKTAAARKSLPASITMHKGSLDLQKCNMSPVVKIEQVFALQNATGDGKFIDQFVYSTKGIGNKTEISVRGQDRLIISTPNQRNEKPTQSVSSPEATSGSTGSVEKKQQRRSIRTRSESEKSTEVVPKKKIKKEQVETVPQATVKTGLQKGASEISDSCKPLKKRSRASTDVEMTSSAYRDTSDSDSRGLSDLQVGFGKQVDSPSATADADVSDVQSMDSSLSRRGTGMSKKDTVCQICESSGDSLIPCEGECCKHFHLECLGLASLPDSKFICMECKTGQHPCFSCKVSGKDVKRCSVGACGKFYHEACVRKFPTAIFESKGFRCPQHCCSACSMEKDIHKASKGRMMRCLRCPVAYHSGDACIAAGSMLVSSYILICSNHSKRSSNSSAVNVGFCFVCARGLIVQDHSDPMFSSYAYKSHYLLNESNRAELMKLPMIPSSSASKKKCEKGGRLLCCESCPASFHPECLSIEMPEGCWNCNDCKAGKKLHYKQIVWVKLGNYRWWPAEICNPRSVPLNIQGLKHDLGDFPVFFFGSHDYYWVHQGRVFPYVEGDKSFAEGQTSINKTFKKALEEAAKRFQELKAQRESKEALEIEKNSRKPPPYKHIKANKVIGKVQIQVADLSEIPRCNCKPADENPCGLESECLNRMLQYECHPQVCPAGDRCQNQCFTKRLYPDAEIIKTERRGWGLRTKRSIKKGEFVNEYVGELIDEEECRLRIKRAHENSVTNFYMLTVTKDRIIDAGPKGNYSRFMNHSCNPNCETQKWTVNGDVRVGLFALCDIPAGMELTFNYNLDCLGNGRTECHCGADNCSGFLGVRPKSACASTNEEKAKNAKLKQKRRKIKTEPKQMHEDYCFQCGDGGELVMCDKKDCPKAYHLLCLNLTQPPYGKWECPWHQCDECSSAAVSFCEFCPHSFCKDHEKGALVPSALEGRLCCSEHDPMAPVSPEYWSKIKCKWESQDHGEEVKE
Nature of the assay: Selectivity interaction (PWWP, WD40, and Tudor domain panel (DSLS measurements, literature)) EUB0000270b NSD3.

Assay [8] has as its target T3, Alpha-2C adrenergic receptor (Homo sapiens) (UniProt P18825).
T3 sequence (whole entry): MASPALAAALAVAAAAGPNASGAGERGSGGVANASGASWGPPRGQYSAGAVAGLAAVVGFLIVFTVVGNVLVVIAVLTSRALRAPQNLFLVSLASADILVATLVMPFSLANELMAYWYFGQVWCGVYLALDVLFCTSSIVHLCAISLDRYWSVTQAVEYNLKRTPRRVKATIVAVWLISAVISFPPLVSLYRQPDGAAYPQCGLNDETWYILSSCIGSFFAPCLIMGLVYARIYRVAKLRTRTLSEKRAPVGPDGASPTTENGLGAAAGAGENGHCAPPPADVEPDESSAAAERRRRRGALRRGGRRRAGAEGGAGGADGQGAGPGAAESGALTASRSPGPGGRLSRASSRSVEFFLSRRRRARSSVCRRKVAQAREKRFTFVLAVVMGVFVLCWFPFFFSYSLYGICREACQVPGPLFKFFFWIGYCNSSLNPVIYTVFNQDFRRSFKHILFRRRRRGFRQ
Put plainly: Selectivity interaction (Panel of kinases, GPCRs, ion channels and transporters (enzymatic assay)) EUB0000223bCl ADRA2C.

Sequence of Tyrosine-protein kinase Yes (Homo sapiens) (P07947 2-543 limits assumed): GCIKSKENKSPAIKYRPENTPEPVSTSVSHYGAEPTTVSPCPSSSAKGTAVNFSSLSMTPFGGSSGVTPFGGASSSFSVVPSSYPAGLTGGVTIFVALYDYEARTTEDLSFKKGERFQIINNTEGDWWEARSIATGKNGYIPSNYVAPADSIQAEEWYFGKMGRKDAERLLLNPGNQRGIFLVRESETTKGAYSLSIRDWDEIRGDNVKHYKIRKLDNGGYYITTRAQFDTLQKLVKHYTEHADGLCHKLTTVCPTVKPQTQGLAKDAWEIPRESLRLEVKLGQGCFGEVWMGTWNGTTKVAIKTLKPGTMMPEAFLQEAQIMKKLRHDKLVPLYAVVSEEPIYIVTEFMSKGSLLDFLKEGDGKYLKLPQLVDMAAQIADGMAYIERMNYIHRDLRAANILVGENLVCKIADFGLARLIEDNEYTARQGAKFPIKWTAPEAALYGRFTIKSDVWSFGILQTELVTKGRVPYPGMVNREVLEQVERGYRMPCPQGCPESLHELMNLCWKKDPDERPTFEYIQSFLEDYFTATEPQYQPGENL

In the case of `CN(C)C/C=C/C(=O)Nc1ccc(C(=O)N2CCCC(Nc3ncc(Cl)c(-c4c[nH]c5ccccc45)n3)C2)cc1` (centres undefined), the % of control in assay [1] was 100%.

As for `CNC(=O)Nc1ccc(-c2nc(N3CC4CCC(C3)O4)c3cnn(C4CCC5(CC4)OCCO5)c3n2)cc1`, the % of inhibition in assay [2] came out at 5%; in assay [3], 7%.

`Nc1cnc(N2CCc3cc(S(=O)(=O)Nc4c(F)cc(Cl)cc4F)cc(N4CCCC4=O)c32)nc1` [TP-020n] came in with a % of control in assay [4] of 100%.

`Cc1cnc(Nc2ccc(F)cc2Cl)nc1-c1c[nH]c(C(=O)N[C@H](CO)c2cccc(Cl)c2)c1`: the % of inhibition in assay [5] worked out at 3%.

As for `C=CC(=O)Nc1cccc(C(=O)Nc2ccc(Nc3cc(-c4[nH]c(SC)nc4C)ccn3)cc2)c1`, the % of control in assay [6] (at 1 µM) turned out to be 91%; in assay [6] (at 5 µM), 78%.

`Cc1cc(CN)cc(C)c1-c1ncn(C)c1-c1cncn1C`: the dTagg in assay [7] amounted to 0.5 K.

In turn, `COc1cc(C(=O)N2CC[C@@H](O)[C@@H](N)C2)cc2nc(-c3cc4ccccc4n3CC3CC3)n(C)c12` returned a pXC50 in assay [8] of less than 4.5 M.
